Source: PubChem BioAssay (NCI)
Several values for one entry are separate records, joined by “and”; a condition that tells them apart may be missing. Equal entries are not always repeated.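 Five compound concentrations were applied to cells in 96-well plates for 48 hours; endpoints were derived by simple linear interpolation of the resulting dose-response curve. At the GI50, growth is halved. TGI: total growth inhibition.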

Columns and labels:
Test in all cases: inhibition of tumour cell growth, NCI panel, 48 h
OVCAR-4 ovarian = system: OVCAR-4 ovarian
MDA-MB-435 = system: MDA-MB-435
SNB-19 CNS = system: SNB-19 CNS
CCRF-CEM leukemia = system: CCRF-CEM leukemia
K-562 leukemia = system: K-562 leukemia
SK-MEL-28 melanoma = system: SK-MEL-28 melanoma
SF-295 CNS = system: SF-295 CNS
HOP-62 NSCLC = system: HOP-62 NSCLC
A549 NSCLC = system: A549 NSCLC
OVCAR-3 ovarian = system: OVCAR-3 ovarian

Structure (SMILES)	GI50 (OVCAR-4 ovarian)	TGI (OVCAR-4 ovarian)	GI50 (MDA-MB-435)	TGI (MDA-MB-435)	GI50 (SNB-19 CNS) [µM]	TGI (SNB-19 CNS)	GI50 (CCRF-CEM leukemia) [µM]	TGI (CCRF-CEM leukemia) [µM]	GI50 (K-562 leukemia) [µM]	TGI (K-562 leukemia)	GI50 (SK-MEL-28 melanoma)	TGI (SK-MEL-28 melanoma)	GI50 (SF-295 CNS)	GI50 (HOP-62 NSCLC) [µM]	TGI (HOP-62 NSCLC) [µM]	GI50 (A549 NSCLC) [µM]	TGI (A549 NSCLC) [µM]	GI50 (OVCAR-3 ovarian)	TGI (OVCAR-3 ovarian)	TGI (SF-295 CNS)
CC(=O)Oc1ccccc1C(=O)Nc1ncc([N+](=O)[O-])s1	2.05 µM	13.8 µM and > 100 µM	2.13 µM	7.58 µM and 59.7 µM	2.05	45.7 µM and > 100 µM	2.14	15.1	2.53	18.8 µM and > 100 µM	2.48 µM	15.2 µM and > 100 µM	1.91 µM	4.45	> 75.6	2.94	> 100	2.76 µM	13.1 µM and 36.6 µM	–
N#Cc1c(N/N=C/c2ccc(Cl)cc2Cl)nc(N)nc1N1CCCC1	14.8 µM	> 100 µM	62.2 µM	> 100 µM	49.9	> 100 µM	23.5	58.3	16.7	49.5 µM	37.6 µM	> 100 µM	18.8 µM	15.2	32.4	29.6	65	25.5 µM	> 100 µM	> 100 µM
CN1C(=O)/C(=C/c2c(Cl)n(C)c3ccccc23)c2ccccc21	8.99 µM and 1.82 µM	3.45 µM	1.89 µM and 1.69 µM	4 µM and 3.13 µM	6.84	–	–	> 100	3.15	–	5.24 µM and 1.62 µM	3.05 µM	2.74 µM and 1.58 µM	2.99	8.96	7.78	–	2.05 µM and 1.45 µM	5.17 µM and 2.76 µM	7.76 µM and 2.99 µM
c1ccc2nc3c(nc2c1)sc1ccccc13	–	32.9 µM	–	> 100 µM	–	42.2 µM	–	> 100	–	> 100 µM	–	> 100 µM	–	–	73.6	–	> 100	–	> 100 µM	> 100 µM
O=S(=O)(Nc1ccc(F)cc1F)c1ccc(-c2cnc(C3CC3)o2)cc1	3.13 µM	> 100 µM	0.14 µM	2.72 µM	0.638	> 100 µM	0.856	> 100	0.211	> 100 µM	13.1 µM	> 71.9 µM	0.359 µM	0.724	47.6	0.868	> 100	0.493 µM	11.9 µM	5.53 µM
O=C(O)CC(NC(=O)CP(=O)(O)O)C(=O)O (configuration not stated)	–	> 10000 µM	48.8 µM	> 10000 µM	72.6	> 10000 µM	–	> 10000	–	> 10000 µM	389 µM	> 10000 µM	–	–	3760	95.7	4250	–	> 10000 µM	> 10000 µM
COc1cc(OC)c(/C=C/c2c3ccccc3cc[n+]2C)c(OC)c1	1.15 µM	> 100 µM	0.781 µM	10.1 µM	1.88	25 µM	2.08	> 72.1	0.863	> 100 µM	2.34 µM	13.2 µM	2.17 µM	3.52	> 33.7	2.13	> 100	1.23 µM	9.78 µM	> 53.4 µM
OCCCNc1nccc(-c2c(-c3ccc(F)cc3)nn3cc(C(F)(F)F)ccc23)n1	10.8 µM	> 25 µM	10.1 µM	> 25 µM	> 25	> 25 µM	11.4	> 25	10.4	> 25 µM	15.9 µM	> 25 µM	10.3 µM	> 23.4	> 25	17.3	> 25	15.1 µM	> 25 µM	> 25 µM
N=C(N)c1ccc2nc(-c3cc(CC(=O)N[C@@H](CC(=O)O)C(=O)O)cc(-c4cc(S(N)(=O)=O)ccc4O)c3O)[nH]c2c1	> 100 µM	> 100 µM	> 100 µM	> 100 µM	> 100	> 100 µM	> 100	> 100	> 100	> 100 µM	> 100 µM	> 100 µM	> 100 µM	> 100	> 100	> 100	> 100	> 100 µM	> 100 µM	> 100 µM
NC(=O)c1cc(S(=O)(=O)Nc2nnc(-c3ccccc3)c(-c3ccccc3)n2)c(SCc2ccccc2)cc1Cl	–	> 64.6 µM	> 53.4 µM	> 100 µM	> 100	> 100 µM	> 50.4	> 82.3	54.6	> 100 µM	–	> 100 µM	> 57.7 µM	> 100	> 100	> 100	> 100	> 100 µM	> 100 µM	> 100 µM
CCOC(=O)c1c(NC(=O)c2cccc(C(F)(F)F)c2)sc2c(CN(C)C)c(O)ccc12	9.85 µM	21.5 µM	3.15 µM	12.9 µM	10.6	22.8 µM	3.41	11.7	1.83	4.76 µM	1.76 µM	3.21 µM	2.83 µM	13.8	27.7	3.3	12.7	10.1 µM	21.7 µM	9.2 µM
